Results reported in ChEMBL document CHEMBL4257544, “Synthesis and biological evaluation of novel asymmetric naphthalene diimide derivatives as anticancer agents depending on ROS generation” (Medchemcomm, 2018).
Active and inactive are the calls of the source. The rule behind the calls is not given here.

What was measured:
[1] = tested on: SMMC-7721; experiment: Cytotoxicity against human SMMC7721 cells assessed as morphological changes treated at 1 hr post antioxidant alpha-tocopherol addition and measured after 24 hrs; type: functional, cell-based
[2] = tested on: SMMC-7721; experiment: Induction of autophagy in human SMMC7721 cells assessed as decrease in p62 level at 1 to 3 uM by Western blot analysis; type: functional, cell-based
[3] = tested on: SMMC-7721; experiment: Induction of apoptosis in human SMMC7721 cells assessed as increase in p53 protein expression treated at 1 hr post antioxidant alpha-tocopherol addition and measured after 24 hrs by Western blot analysis; type: functional, cell-based
[4] = tested on: SMMC-7721; experiment: Potency index, ratio of amonafide IC50 to compound IC50 for cytotoxicity against human SMMC7721 cells; type: functional
[5] = tested on: SMMC-7721; experiment: Downregulation of Akt phosphorylation at […] residue in human SMMC7721 cells at 1 to 3 uM after 24 hrs by Western blot analysis; type: functional, cell-based
[6] = tested on: HepG2; experiment: Potency index, ratio of amonafide IC50 to compound IC50 for cytotoxicity against human HepG2 cells; type: functional
[7] = tested on: HepG2; experiment: Cytotoxicity against human HepG2 cells after 48 hrs by MTT assay; type: functional, cell-based; details: HepG2, 48 h
[8] = tested on: HepG2; experiment: Induction of autophagy in human HepG2 cells assessed as increase in BECN1 level at 1 to 3 uM by Western blot analysis; type: functional, cell-based
[9] = tested on: HCT-116; experiment: Cytotoxicity against human HCT116 cells after 48 hrs by MTT assay; type: functional, cell-based; details: HCT-116, 48 h
[10] = tested on: SMMC-7721; experiment: Induction of apoptosis in human SMMC7721 cells assessed as increase in cleaved PARP1 protein expression at 1 to 3 uM after 24 hrs by Western blot analysis; type: functional, cell-based
[11] = tested on: HepG2; experiment: Induction of ROS generation in human HepG2 cells at 1 to 3 uM after 24 hrs in presence of antioxidant alpha-tocopherol by DCFH-DA staining based HCS analysis; type: functional, cell-based
[12] = tested on: SMMC-7721; experiment: Induction of apoptosis in human SMMC7721 cells at 3 uM after 48 hrs by Annexin V/propidium iodide staining based flow cytometry relative to control; type: functional
[13] = tested on: SMMC-7721; experiment: Downregulation of beta-catenin protein expression in human SMMC7721 cells at 1 to 3 uM after 24 hrs by Western blot analysis; type: functional, cell-based
[14] = tested on: HepG2; experiment: Downregulation of beta-catenin protein expression in human HepG2 cells at 1 to 3 uM after 24 hrs by Western blot analysis; type: functional, cell-based
[15] = tested on: HepG2; experiment: Induction of apoptosis in human HepG2 cells assessed as increase in p53 protein expression at 1 to 3 uM after 24 hrs by Western blot analysis; type: functional, cell-based
[16] = tested on: HepG2; experiment: Induction of apoptosis in human HepG2 cells after 24 hrs by acridine orange/ethidium bromide and Hoechst 33342 staining based HCS analysis; type: functional, cell-based
[17] = tested on: HepG2; experiment: Cytotoxicity against human HepG2 cells after 24 hrs by MTT assay; type: functional, cell-based; details: HepG2, 24 h
[18] = tested on: SMMC-7721; experiment: Downregulation of beta-catenin protein expression in human SMMC7721 cells treated at 1 hr post antioxidant alpha-tocopherol addition and measured after 24 hrs by Western blot analysis; type: functional, cell-based
[19] = tested on: HepG2; experiment: Induction of apoptosis in human HepG2 cells assessed as increase in caspase-8 activation at 1 to 3 uM after 24 hrs by Western blot analysis; type: functional, cell-based
[20] = tested on: HepG2; experiment: Cytotoxicity against human HepG2 cells assessed as reduction in cell viability in presence of autophagy inhibitor 3-MA by MTT assay; type: functional, cell-based
[21] = tested on: HepG2; experiment: Induction of autophagy in human HepG2 cells after 24 hrs by MDC staining based HCS analysis; type: functional, cell-based
[22] = tested on: HepG2; experiment: Induction of autophagy in human HepG2 cells assessed as decrease in p62 level at 1 to 3 uM by Western blot analysis; type: functional, cell-based
[23] = tested on: HepG2; experiment: Induction of apoptosis in human HepG2 cells assessed as decrease in Bcl2 protein expression at 1 to 3 uM after 24 hrs by Western blot analysis; type: functional, cell-based
[24] = tested on: SMMC-7721; experiment: Induction of autophagy in human SMMC7721 cells after 24 hrs by MDC staining based HCS analysis; type: functional, cell-based
[25] = tested on: SMMC-7721; experiment: Induction of autophagy in human SMMC7721 cells assessed as increase in BECN1 level at 1 to 3 uM by Western blot analysis; type: functional, cell-based
[26] = tested on: SMMC-7721; experiment: Induction of autophagy in human SMMC7721 cells assessed as increase in LC3-2 protein expression treated at 1 hr post antioxidant alpha-tocopherol addition and measured after 24 hrs by Western blot analysis; type: functional, cell-based

CCCCN1C(=O)c2ccc3c4c(ccc(c24)C1=O)C(=O)N(CCCN(C)C)C3=O
Activity [1]: inactive | Activity [2]: Active | Activity [3]: inactive | Ratio IC50 [4]: 5 | Activity [5]: Active | Ratio IC50 [6]: 5 | IC50 [7]: 1480 nM | Activity [8]: Active | IC50 [9]: 14.7 µM | Activity [10]: Active | Activity [11]: inactive | Activity [12]: 52.1% | Activity [13]: Active | Activity [14]: Active | Activity [15]: Active | Activity [16]: Dose-dependent effect | IC50 [17]: 4.29 µM | Activity [18]: inactive | Activity [19]: Active | Activity [20]: inactive | Activity [21]: Dose-dependent effect | Activity [22]: Active | Activity [23]: Active | Activity [24]: Dose-dependent effect | Activity [25]: Active | Activity [26]: inactive
